Source: patent US9345703B2, “Kappa opioid receptor effectors and uses thereof” (University of Kansas, priority 2011, dated 2016)

Columns and labels:
[1] = Plasma protein binding, mouse; assay type: in vitro ADME
Source text: Plasma protein binding is a measure of a drug's efficiency to bind to the proteins within blood plasma. The less bound a drug is, the more efficiently it can traverse cell membranes or diffuse. Highly plasma protein bound rugs are confined to the vascular space, thereby having a relatively low volume of distribution. In contrast, drugs that remain largely unbound in plasma are generally available for distribution to other organs and tissues. In the instant case, the Chemotype I antagonist 1{3} was marginally available with 88.46% and 80.07% bound to 1 μM and 10 μM mouse plasma protein, respectively, and 93.96% and 88.54% bound to 1 μM and 10 μM human plasma protein, respectively.

[2] = biological target: D3 (Homo sapiens, UniProt P35462); assay: PDSP radioligand binding assay
Procedure: (§1) The broader selectivity of compound 1{3} was tested against additional targets and basic pharmacological properties were assessed. […] The compound was initially screened in radioligand binding assays at a constant concentration (10 μM) to identify possible activity of the compound. Results showing significant activity in the initial screen were selected for Ki determinations.
(§2) As a representative of the Chemotype II series, the MLPCN probe molecule 2{8} was subjected to a binding assay panel of 44 GPCR and other molecular targets by the Pyschoactive Drug Screening Program (PDSP) (Table 10). The compound was initially screened in a radioligand binding assay at a constant concentration (10 μM) to identify possible activity of the compound. Results showing significant activity in the initial screen were selected for Ki determinations.

[3] = biological target: DOR (Homo sapiens, UniProt P41143); assay: PDSP radioligand binding assay
Procedure: as §1, §2

[4] = biological target: MOR (Homo sapiens, UniProt P35372); assay: PDSP radioligand binding assay
Procedure: as §1, §2

[5] = biological target: Alpha2B (Homo sapiens, UniProt P18089); assay: PDSP radioligand binding assay
Procedure: (§3) The compound was initially screened in radioligand binding assays at a constant concentration (10 μM) to identify possible activity of the compound. Results showing significant activity in the initial screen were selected for Ki determinations.
as §2

[6] = biological target: Alpha1B (Homo sapiens, UniProt P35368); assay: PDSP radioligand binding assay
Procedure: as §3, §2

[7] = biological target: H4 (Homo sapiens, UniProt Q9H3N8); assay: PDSP radioligand binding assay
Procedure: as §3, §2

[8] = biological target: M4 (Homo sapiens, UniProt P08173); assay: PDSP radioligand binding assay
Procedure: as §3, §2

[9] = biological target: 5ht1b (Homo sapiens, UniProt P28222); assay: PDSP radioligand binding assay
Procedure: as §3, §2

[10] = biological target: H2 (Homo sapiens, UniProt P25021); assay: PDSP radioligand binding assay
Procedure: as §3, §2

[11] = biological target: BZP Rat Brain Site; assay: PDSP radioligand binding assay
Procedure: as §3, §2

[12] = biological target: M5 (Homo sapiens, UniProt P08912); assay: PDSP radioligand binding assay
Procedure: as §3, §2

[13] = biological target: 5ht1a (Homo sapiens, UniProt P08908); assay: PDSP radioligand binding assay
Procedure: as §3, §2

[14] = biological target: 5ht2b (Homo sapiens, UniProt P41595); assay: PDSP radioligand binding assay
Procedure: as §3, §2

[15] = biological target: Beta1 (Homo sapiens, UniProt P08588); assay: PDSP radioligand binding assay
Procedure: as §3, §2

[16] = biological target: Alpha2C (Homo sapiens, UniProt P18825); assay: PDSP radioligand binding assay
Procedure: as §3, §2

[17] = biological target: Sigma2 (Rattus norvegicus, UniProt Q5U3Y7); assay: PDSP radioligand binding assay
Procedure: as §3, §2

[18] = biological target: D1 (Homo sapiens, UniProt P21728); assay: PDSP radioligand binding assay
Procedure: as §3, §2

[19] = biological target: 5ht1e (Homo sapiens, UniProt P28566); assay: PDSP radioligand binding assay
Procedure: as §3, §2

[20] = biological target: 5ht1d (Homo sapiens, UniProt P28221); assay: PDSP radioligand binding assay
Procedure: as §3, §2

[21] = biological target: 5ht2c (Homo sapiens, UniProt P28335); assay: PDSP radioligand binding assay
Procedure: as §3, §2

[22] = biological target: SERT (Homo sapiens, UniProt P31645); assay: PDSP radioligand binding assay
Procedure: as §3, §2

[23] = biological target: H1 (Homo sapiens, UniProt P35367); assay: PDSP radioligand binding assay
Procedure: as §3, §2

[24] = biological target: 5ht2a (Homo sapiens, UniProt P28223); assay: PDSP radioligand binding assay
Procedure: as §3, §2

[25] = biological target: GabaA; assay: PDSP radioligand binding assay
Procedure: as §3, §2

[26] = biological target: Alpha2A (Homo sapiens, UniProt P08913); assay: PDSP radioligand binding assay
Procedure: as §3, §2

[27] = biological target: 5ht6 (Homo sapiens, UniProt P50406); assay: PDSP radioligand binding assay
Procedure: as §3, §2

[28] = biological target: Alpha1D (Homo sapiens, UniProt P25100); assay: PDSP radioligand binding assay
Procedure: as §3, §2

[29] = biological target: 5ht5a (Homo sapiens, UniProt P47898); assay: PDSP radioligand binding assay
Procedure: as §3, §2

[30] = biological target: H3 (Homo sapiens, UniProt Q9Y5N1); assay: PDSP radioligand binding assay
Procedure: as §3, §2

[31] = biological target: NET (Homo sapiens, UniProt P23975); assay: PDSP radioligand binding assay
Procedure: as §3, §2

[32] = biological target: 5ht3 (Homo sapiens, UniProt P46098); assay: PDSP radioligand binding assay
Procedure: as §3, §2

[33] = biological target: Beta2 (Homo sapiens, UniProt P07550); assay: PDSP radioligand binding assay
Procedure: as §3, §2

[34] = biological target: Beta3 (Homo sapiens, UniProt P13945); assay: PDSP radioligand binding assay
Procedure: as §3, §2

[35] = biological target: D2 (Homo sapiens, UniProt P14416); assay: PDSP radioligand binding assay
Procedure: as §3, §2

[36] = biological target: M1 (Homo sapiens, UniProt P11229); assay: PDSP radioligand binding assay
Procedure: as §3, §2

[37] = biological target: Sigma1; assay: PDSP radioligand binding assay
Procedure: as §3, §2

[38] = Table 10, average of separate Ki determinations

Sigma2, sequence (Q5U3Y7 whole entry): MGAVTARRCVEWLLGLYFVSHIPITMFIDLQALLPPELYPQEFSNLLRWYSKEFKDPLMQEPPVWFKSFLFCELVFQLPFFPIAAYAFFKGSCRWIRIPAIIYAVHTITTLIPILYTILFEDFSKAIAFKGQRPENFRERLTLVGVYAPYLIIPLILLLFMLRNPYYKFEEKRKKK
5ht1a, sequence (P08908 whole entry, species assumed): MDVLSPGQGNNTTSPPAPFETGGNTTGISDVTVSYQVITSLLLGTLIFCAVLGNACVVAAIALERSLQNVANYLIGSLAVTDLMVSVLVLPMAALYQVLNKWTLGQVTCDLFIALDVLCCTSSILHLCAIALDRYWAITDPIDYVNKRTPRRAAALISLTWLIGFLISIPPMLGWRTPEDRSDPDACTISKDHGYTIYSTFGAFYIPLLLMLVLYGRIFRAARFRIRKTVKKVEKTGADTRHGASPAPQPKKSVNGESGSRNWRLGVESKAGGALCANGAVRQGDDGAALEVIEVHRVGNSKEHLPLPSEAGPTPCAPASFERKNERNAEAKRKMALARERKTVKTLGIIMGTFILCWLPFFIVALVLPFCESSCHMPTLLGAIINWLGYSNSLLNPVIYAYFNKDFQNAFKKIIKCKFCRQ
Beta1, sequence (P08588 whole entry): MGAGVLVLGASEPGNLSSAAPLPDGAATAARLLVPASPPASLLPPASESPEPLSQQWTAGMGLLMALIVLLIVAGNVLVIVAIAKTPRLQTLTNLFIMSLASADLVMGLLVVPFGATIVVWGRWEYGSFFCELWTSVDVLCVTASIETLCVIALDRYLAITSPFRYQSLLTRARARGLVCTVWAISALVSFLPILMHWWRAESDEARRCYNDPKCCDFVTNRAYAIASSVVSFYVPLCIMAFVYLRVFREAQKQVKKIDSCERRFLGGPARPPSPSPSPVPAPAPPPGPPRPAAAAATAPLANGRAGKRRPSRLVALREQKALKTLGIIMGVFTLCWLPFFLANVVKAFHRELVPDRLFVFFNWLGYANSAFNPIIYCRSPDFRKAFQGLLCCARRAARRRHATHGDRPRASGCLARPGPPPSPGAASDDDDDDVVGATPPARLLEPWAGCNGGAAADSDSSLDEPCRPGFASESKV
Alpha2C, sequence (P18825 whole entry): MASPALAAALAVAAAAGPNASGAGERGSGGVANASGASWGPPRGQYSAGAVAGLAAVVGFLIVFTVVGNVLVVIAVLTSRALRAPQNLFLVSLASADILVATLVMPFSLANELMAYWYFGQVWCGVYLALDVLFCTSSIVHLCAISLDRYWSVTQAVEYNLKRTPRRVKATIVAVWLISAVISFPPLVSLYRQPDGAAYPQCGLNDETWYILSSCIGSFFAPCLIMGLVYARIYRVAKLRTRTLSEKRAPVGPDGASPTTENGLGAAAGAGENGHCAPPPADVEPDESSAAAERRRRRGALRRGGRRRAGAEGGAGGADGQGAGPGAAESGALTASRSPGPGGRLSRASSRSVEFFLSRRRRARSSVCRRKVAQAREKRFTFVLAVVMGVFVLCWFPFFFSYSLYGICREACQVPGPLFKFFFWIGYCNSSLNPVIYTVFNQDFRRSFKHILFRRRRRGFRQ
5ht5a, sequence (P47898 whole entry, species assumed): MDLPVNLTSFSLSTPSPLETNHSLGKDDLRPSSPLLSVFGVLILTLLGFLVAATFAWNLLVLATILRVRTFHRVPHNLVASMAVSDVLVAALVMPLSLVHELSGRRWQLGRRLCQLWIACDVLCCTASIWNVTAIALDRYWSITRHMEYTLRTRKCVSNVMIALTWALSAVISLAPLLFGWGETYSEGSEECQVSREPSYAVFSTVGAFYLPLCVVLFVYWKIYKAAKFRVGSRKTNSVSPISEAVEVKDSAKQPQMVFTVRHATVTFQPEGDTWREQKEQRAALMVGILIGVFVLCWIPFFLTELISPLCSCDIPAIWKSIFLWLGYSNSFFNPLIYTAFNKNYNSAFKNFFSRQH
5ht2c, sequence (P28335 33-458, species assumed): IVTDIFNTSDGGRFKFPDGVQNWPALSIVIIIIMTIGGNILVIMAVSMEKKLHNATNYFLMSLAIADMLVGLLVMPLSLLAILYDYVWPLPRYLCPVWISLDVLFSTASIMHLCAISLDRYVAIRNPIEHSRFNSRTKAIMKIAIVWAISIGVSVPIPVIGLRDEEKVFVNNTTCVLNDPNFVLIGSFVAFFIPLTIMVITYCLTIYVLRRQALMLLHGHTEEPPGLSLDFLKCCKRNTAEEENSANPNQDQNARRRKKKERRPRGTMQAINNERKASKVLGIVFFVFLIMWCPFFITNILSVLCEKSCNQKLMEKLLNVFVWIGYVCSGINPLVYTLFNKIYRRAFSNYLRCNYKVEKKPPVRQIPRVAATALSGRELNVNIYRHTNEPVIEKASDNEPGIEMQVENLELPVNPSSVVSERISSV
Beta2, sequence (P07550 whole entry): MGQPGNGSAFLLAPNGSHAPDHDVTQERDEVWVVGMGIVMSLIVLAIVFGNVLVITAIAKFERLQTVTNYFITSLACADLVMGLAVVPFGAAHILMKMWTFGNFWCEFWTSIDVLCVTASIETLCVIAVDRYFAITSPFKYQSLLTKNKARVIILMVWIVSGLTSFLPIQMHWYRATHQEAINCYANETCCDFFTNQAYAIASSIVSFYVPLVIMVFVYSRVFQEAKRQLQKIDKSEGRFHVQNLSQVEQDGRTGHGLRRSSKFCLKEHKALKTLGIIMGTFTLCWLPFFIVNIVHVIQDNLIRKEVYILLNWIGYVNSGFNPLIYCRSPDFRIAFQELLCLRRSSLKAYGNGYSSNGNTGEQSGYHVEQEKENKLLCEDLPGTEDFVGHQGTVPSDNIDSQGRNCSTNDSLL
Alpha1D, sequence (P25100 whole entry): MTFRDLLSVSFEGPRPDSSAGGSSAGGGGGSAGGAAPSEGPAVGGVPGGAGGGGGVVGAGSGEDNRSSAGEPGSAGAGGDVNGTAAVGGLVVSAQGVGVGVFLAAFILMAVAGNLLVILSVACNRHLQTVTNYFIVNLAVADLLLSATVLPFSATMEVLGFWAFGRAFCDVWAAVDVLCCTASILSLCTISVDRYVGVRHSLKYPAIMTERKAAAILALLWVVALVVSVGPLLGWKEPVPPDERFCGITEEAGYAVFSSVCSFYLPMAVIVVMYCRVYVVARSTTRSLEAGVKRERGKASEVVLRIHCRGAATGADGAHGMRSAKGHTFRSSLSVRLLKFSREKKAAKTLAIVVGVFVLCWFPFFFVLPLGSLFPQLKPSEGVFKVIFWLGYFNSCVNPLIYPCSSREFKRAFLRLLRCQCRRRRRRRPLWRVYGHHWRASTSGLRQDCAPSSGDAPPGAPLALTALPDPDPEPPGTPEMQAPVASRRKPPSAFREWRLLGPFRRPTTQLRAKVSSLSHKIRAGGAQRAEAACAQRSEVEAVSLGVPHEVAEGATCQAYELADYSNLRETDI
M1, sequence (P11229 whole entry): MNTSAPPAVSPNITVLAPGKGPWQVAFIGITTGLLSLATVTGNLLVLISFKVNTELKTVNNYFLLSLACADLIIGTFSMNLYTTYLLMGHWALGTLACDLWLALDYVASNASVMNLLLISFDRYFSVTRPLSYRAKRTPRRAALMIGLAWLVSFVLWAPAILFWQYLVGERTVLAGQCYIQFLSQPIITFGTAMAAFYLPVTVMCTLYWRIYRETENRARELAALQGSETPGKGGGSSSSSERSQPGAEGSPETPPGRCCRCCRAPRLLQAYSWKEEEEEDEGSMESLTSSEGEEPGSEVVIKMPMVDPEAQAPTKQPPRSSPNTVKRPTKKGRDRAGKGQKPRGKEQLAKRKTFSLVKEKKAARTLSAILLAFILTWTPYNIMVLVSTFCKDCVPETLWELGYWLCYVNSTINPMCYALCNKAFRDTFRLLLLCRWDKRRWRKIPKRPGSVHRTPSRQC
SERT, sequence (P31645 whole entry, species assumed): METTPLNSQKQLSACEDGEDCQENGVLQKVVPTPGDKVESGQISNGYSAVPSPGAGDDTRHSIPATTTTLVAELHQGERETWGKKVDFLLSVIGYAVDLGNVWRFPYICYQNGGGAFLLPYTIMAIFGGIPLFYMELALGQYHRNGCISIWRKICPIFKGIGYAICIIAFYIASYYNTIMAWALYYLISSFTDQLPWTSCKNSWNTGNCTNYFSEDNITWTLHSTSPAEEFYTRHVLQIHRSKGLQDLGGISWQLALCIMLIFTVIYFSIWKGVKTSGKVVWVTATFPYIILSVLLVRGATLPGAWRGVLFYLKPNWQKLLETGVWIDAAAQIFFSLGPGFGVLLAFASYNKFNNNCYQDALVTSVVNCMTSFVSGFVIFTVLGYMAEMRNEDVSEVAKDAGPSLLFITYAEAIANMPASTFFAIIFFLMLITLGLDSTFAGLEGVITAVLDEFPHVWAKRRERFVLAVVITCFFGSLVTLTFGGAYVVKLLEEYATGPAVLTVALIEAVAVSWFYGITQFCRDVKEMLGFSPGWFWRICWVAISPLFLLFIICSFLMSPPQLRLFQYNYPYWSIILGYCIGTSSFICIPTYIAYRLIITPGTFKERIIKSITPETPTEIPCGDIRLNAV
5ht2a, sequence (P28223 whole entry, species assumed): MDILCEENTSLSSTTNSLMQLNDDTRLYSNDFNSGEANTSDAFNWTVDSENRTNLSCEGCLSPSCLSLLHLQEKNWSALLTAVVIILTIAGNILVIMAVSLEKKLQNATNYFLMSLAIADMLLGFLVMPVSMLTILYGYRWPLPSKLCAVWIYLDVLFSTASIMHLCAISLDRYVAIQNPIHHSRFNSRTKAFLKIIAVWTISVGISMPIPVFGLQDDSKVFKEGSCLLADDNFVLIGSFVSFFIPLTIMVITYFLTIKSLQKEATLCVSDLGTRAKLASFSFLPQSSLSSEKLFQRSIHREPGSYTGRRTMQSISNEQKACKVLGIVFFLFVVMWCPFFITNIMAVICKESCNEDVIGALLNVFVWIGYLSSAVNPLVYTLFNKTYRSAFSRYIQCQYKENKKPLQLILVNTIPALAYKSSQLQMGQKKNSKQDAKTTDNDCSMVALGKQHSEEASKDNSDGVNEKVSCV

`COc1ccc(N2CCN(CCCNC(=O)Cn3c(=O)c4cccn4c4c(C)ccnc43)CC2)cc1` [Compound 1{3}, N-(3-(4-(4-Methoxyphenyl)piperazin-1-yl)propyl)-2-(1-methyl-6-oxopyrido[2,3-e]pyrrolo[1,2-a]pyrazin-5(6H)-yl)acetamide] showed a fraction unbound at 1 μM ([1]; plasma, mouse, 1 μM, read-out: bound to plasma protein (converted)) of 0.115, a fraction unbound at 10 μM ([1]; plasma, mouse, 10 μM, read-out: bound to plasma protein (converted)) of 0.199 and a Ki ([2]; Table 5) of 0.25 µM. For the same compound, the Ki ([3]; Table 5) was 1.44 µM, the Ki ([4]; Table 5) was 1.58 µM and the Ki ([5]; Table 5) was 7.7 µM. For the same compound, the Ki ([6]; Table 5) was > 10 µM, the Ki ([7]; Table 5) was > 10 µM and the Ki ([8]; Table 5) was > 10 µM. For the same compound, the Ki ([9]; Table 5) was > 10 µM, the Ki ([10]; Table 5) was 3.5 µM and the Ki ([11]; Table 5) was > 10 µM. The Ki ([12]; Table 5) was 6.4 µM, the Ki ([13]; Table 5) was > 10 µM and the Ki ([14]; Table 5) was 1.92 µM. For the same compound, the Ki ([15]; Table 5) was > 10 µM, the Ki ([16]; Table 5) was 0.694 µM and the Ki ([17]; Table 5) was > 10 µM. The Ki ([18]; Table 5) was > 10 µM, the Ki ([19]; Table 5) was > 10 µM and the Ki ([20]; Table 5) was 0.702 µM. The Ki ([21]; Table 5) was > 10 µM, the Ki ([22]; Table 5) was 5.33 µM and the Ki ([23]; Table 5) was 0.454 µM. For the same compound, the Ki ([24]; Table 5) was > 10 µM, the Ki ([25]; Table 5) was > 10 µM and the Ki ([26]; Table 5) was > 10 µM. The Ki ([27]; Table 5) was > 10 µM, the Ki ([28]; Table 5) was > 10 µM and the Ki ([29]; Table 5) was > 10 µM. The Ki ([30]; Table 5) was > 10 µM, the Ki ([31]; Table 5) was 0.685 µM and the Ki ([32]; Table 5) was > 10 µM. For the same compound, the Ki ([33]; Table 5) was > 10 µM, the Ki ([34]; Table 5) was > 10 µM and the Ki ([35]; Table 5) was 1.35 µM. The Ki ([36]; Table 5) was > 10 µM and the Ki ([37]; Table 5) was > 10 µM.

For `Clc1ccc(CSc2nnc(-c3ccccn3)n2Cc2ccco2)cc1Cl` [Compound 2{8}], the bound to plasma ([1]; mouse plasma) was > 99%, the Ki ([2]; Table 10) was > 10 µM and the Ki [3, 38] was 5.35 µM. The Ki [4, 38] was 1.9 µM, the Ki ([5]; Table 10) was 5.53 µM and the Ki ([6]; Table 10) was > 10 µM. The Ki ([7]; Table 10) was > 10 µM, the Ki ([8]; Table 10) was > 10 µM and the Ki ([9]; Table 10) was > 10 µM. The Ki ([10]; Table 10) was > 10 µM, the Ki ([11]; Table 10) was > 10 µM and the Ki ([12]; Table 10) was 4.42 µM. For the same compound, the Ki ([13]; Table 10) was > 10 µM, the Ki ([14]; Table 10) was 1.24 µM and the Ki ([15]; Table 10) was > 10 µM. For the same compound, the Ki ([16]; Table 10) was 9.6 µM, the Ki ([17]; Table 10) was 2.91 µM and the Ki ([18]; Table 10) was 1.8 µM. The Ki ([19]; Table 10) was > 10 µM, the Ki ([20]; Table 10) was > 10 µM and the Ki ([21]; Table 10) was > 10 µM. The Ki ([22]; Table 10) was > 10 µM, the Ki ([23]; Table 10) was > 10 µM and the Ki ([24]; Table 10) was 3.79 µM. The Ki ([25]; Table 10) was > 10 µM, the Ki ([26]; Table 10) was > 10 µM and the Ki ([27]; Table 10) was > 10 µM. The Ki ([28]; Table 10) was > 10 µM, the Ki ([29]; Table 10) was 4.99 µM and the Ki ([30]; Table 10) was > 10 µM. For the same compound, the Ki ([31]; Table 10) was 5.87 µM, the Ki ([32]; Table 10) was > 10 µM and the Ki ([33]; Table 10) was > 10 µM. The Ki ([34]; Table 10) was 7.31 µM, the Ki ([35]; Table 10) was > 10 µM and the Ki ([36]; Table 10) was > 10 µM. The Ki ([37]; Table 10) was > 10 µM.
